In PubChem BioAssay AID844 (SRMLSC, 2007):
Calls of active or inactive are those of the source. No rule for the calls is given here.

Tested on: MRP1 cells, doxorubicin viability shift, 10 uM compound
Assay: viability protection against doxorubicin, MRP-1 line – cell-based, doxorubicin EC50 shift, dose response (AID 844)
Conditions: for EC50: measured here: doxorubicin EC50 with compound

SMILES | fold increase in Dox EC50 | EC50 [µM]
Cc1noc(/C=C/N(C)C)c1S(=O)(=O)N1CCCC(C(=O)N2CCCCC2)C1 (stereo not drawn) | 0.74 (inactive) | 3.98
CC(C)CCC1CC(CSC(=N)N)OC1=O (stereo not drawn) | 0.68 (inactive) | 3.68
O=C(Nc1cccc([N+](=O)[O-])c1)c1[nH]ncc1Cl | 0.54 (inactive) | 2.89
Cc1cccc(NC(=O)CC2SC(=O)N(c3ccccc3)C2=O)c1 (stereo not drawn) | 0.95 (inactive) | 5.15
CC1CCc2c(C(=O)OCC(=O)Nc3cccc(S(=O)(=O)N4CCCCCC4)c3)csc2C1 (stereo not drawn) | 1.05 (inactive) | 5.68
O=C(CSc1nc2ccccc2o1)NCc1ccc2c(c1)OCO2 | 1.15 (inactive) | 6.23
NNC(=O)CNC(c1ccccc1)c1cc(Br)ccc1NC(=O)c1cccc(Cl)c1 (stereo not drawn) | 1.21 (inactive) | 6.53
O=C1NC(=Nc2ccc(Cl)cc2)SC1Cc1cccc(Cl)c1Cl (stereo not drawn) | 1.19 (inactive) | 6.41
COCC(=O)Nc1nnc(COc2ccc(Cl)cc2)s1 | 1.44 (inactive) | 7.75
Cc1ccc(-c2cc(C(F)F)nc(NCc3cccnc3)n2)cc1 | 0.52 (inactive) | 2.81
Cc1ccc(N/N=C(\C#N)C(=N)N2CCOCC2)cc1 | 0.92 (inactive) | 4.95
CC(C)c1ccc(C(=O)CSc2ncn[nH]2)cc1 | 0.96 (inactive) | 5.17
O=C1CSC(=NC(=O)c2ccccc2)N1 | 0.7 (inactive) | 3.79
CCOC(=O)CCCCC(=O)c1[nH]c(=O)[nH]c1CSc1nc(-c2ccccc2)c(C#N)c(=O)[nH]1 | 1.22 (inactive) | 6.57
c1coc(C2Nc3cccc4cccc(c34)N2)c1 | 0.21 (inactive) | 1.13
Cc1cc(C)nc(N/N=C/c2cccc3ccccc23)n1 | 1 (inactive) | 5.39
CCc1nnc(NC(=O)c2ccc(S(=O)(=O)N(CC)CC)cc2)s1 | 0.69 (inactive) | 3.73
CC1=C(C(=O)Nc2ccccc2)C(c2ccc(C)o2)N2C(=O)CSC2=N1 (stereo not drawn) | 0.84 (inactive) | 4.55
CCCCc1ccc(-c2nc(-c3ccncc3)no2)cc1 | 0.76 (inactive) | 4.09
Nc1ccc(CC2SC(=O)NC2=O)cc1 (stereo not drawn) | 1.24 (inactive) | 6.72
O=C(NC(=S)Nc1ccccc1N1CCOCC1)c1ccc(-c2cccc(Cl)c2)o1 | 0.41 (inactive) | 2.22
Fc1ccc(-n2nnnc2-c2cnc(-c3cccs3)nc2C(F)(F)F)cc1 | 0.6 (inactive) | 3.24
CCOC(=O)C1=C(C)N=c2s/c(=C\c3ccc(OC(C)=O)cc3)c(=O)n2C1/C=C/c1ccccc1 (stereo not drawn) | 0.34 (inactive) | 1.85
O=C1c2cccc3cccc(c23)C(=O)N1CCN1CCN(CC(O)COc2ccccc2)CC1 (stereo not drawn) | 0.32 (inactive) | 1.71
O=C(Nc1nc(-c2ccc(Oc3ccccc3)cc2)cs1)C1=COCCO1 | 0.84 (inactive) | 4.54
Cc1ccc(C(=O)COc2ccccc2-c2ccccc2)cc1C | 0.9 (inactive) | 4.85
CC(C)CNC(=O)c1cccc(NC(=O)Cc2ccc(Br)cc2)c1 | 0.92 (inactive) | 4.98

SMILES | fold increase in Dox EC50 | EC50 [µM]
Cc1noc(/C=C/N(C)C)c1S(=O)(=O)N1CCCC(C(=O)NCc2ccco2)C1 (stereo not drawn) | 1.04 (inactive) | 5.6
N#CC1=C(N)SC(N)=C(C#N)C1c1cccc(O)c1 | 1.07 (inactive) | 5.78
O=C(Nc1ccc(F)cc1)c1c(O)c2c(n(Cc3ccccc3)c1=O)CCCC2 | 1.31 (inactive) | 7.07
Cc1cccc(NC(=O)/C(=C\c2ccc([N+](=O)[O-])o2)NC(=O)c2ccc(Cl)cc2)c1 | 0.75 (inactive) | 4.04
Cc1ccc(OCc2nnc(SC3CCc4ccccc4C3=O)n2C)cc1 (stereo not drawn) | 1.22 (inactive) | 6.56
O=C(Nc1ccc(O)cc1)C1CCCO1 (stereo not drawn) | 0.91 (inactive) | 4.92
Cc1cccc(NC(=O)CSc2nc(-c3ccccc3)c(C#N)c(=O)[nH]2)c1C | 1.24 (inactive) | 6.71
Cc1cc(C)n(-c2ccc(C(=O)Nc3cccc(S(=O)(=O)N(C)C)c3)cc2)n1 | 0.73 (inactive) | 3.93
Cc1cccc(OCCNC(=O)c2ccc(Oc3ccc(C(F)(F)F)cc3[N+](=O)[O-])cc2)c1 | 1.12 (inactive) | 6.05
CC(/C=C1\SC(=O)N(CC(=O)Nc2ccc(O)cc2)C1=O)=C\c1ccccc1 | 0.68 (inactive) | 3.7
Cc1onc(-c2ccccc2Cl)c1C(=O)OCC(=O)Nc1ccc2c(c1)OCO2 | 1.19 (inactive) | 6.42
CCc1ccc(NC(=O)Cn2c(=O)oc3cc(S(=O)(=O)N4CCOCC4)ccc32)cc1 | 1 (inactive) | 5.4
O=C1/C(=C\c2cccs2)N=C(c2cccs2)N1Nc1ccccc1 | 0.84 (inactive) | 4.55
COc1cc(C(c2sc3ncnn3c2O)N2CCN(c3ccccc3F)CC2)cc(OC)c1OC (stereo not drawn) | 0.81 (inactive) | 4.37
Cc1nc(NC(=S)NC(=O)c2ccccc2)sc1C(=O)N(C)C | 1.24 (inactive) | 6.71
Cc1ccc(S(=O)(=O)N2CCN(c3nc(C)c4c(c3C#N)CC(C)(C)OC4)CC2)cc1 | 0.72 (inactive) | 3.91
NC(=O)C1(N2CCCCC2)CCN(C(=O)c2cccn3c(=O)c4cc(Cl)ccc4nc23)CC1 | 0.7 (inactive) | 3.79
N#CCSc1nc2cc(C(=O)N3CCC(C(N)=O)CC3)ccc2c2nc3ccccc3n12 | 0.86 (inactive) | 4.62
Cn1nnc(NC(=O)COc2ccc(C3CCCCC3)cc2)n1 | 1.49 | 8.05
Cc1ccc(C(c2sc3ncnn3c2O)N2CC(C)CC(C)C2)cc1 (stereo not drawn) | 0.72 (inactive) | 3.89
Cc1noc(/C=C/N(C)C)c1S(=O)(=O)N1CCCC(C(=O)NC2CCCCC2C)C1 (stereo not drawn) | 0.92 (inactive) | 4.98
CC1CC(C)CN(c2ncnc3c2cnn3-c2ccc(Cl)cc2)C1 (stereo not drawn) | 0.35 (inactive) | 1.89
COc1ccccc1-c1nnc(SC2CCc3ccccc3NC2=O)s1 (stereo not drawn) | 0.55 (inactive) | 2.98
O=C(CSc1ncn[nH]1)Nc1nnc(-c2ccccc2)s1 | 0.58 (inactive) | 3.12
CS(=O)(=O)Nc1nnc(Cc2ccccc2)s1 | 0.75 (inactive) | 4.04
Cc1cccc(N2CCN(C(=O)Cc3ccc(Br)cc3)CC2)c1C | 0.95 (inactive) | 5.11
CC(C)CCOc1ncnc2c1sc1nc3c(cc12)CSC(C)(C)C3 | 0.51 (inactive) | 2.76
